Values after ≈ are worked out from the molar mass of the structure shown. Like-named read-outs stand apart in the source and are kept apart here.
What was measured:
[1] = tested on: E. coli CSH2 (RK1); experiment: microbe, parasite or virus in culture; type: cell-based; settings: Escherichia coli, 16 h, read-out: Minimum Inhibitory Concentration (MIC), *E. coli CSH2 (RK1), lactamase-producing strain; 10^6 CFU/ml
Summary of the method: (§1)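 MICs (μg/ml) were read after 16 hours at 37°C. Test strains, grown overnight in Mueller Hinton broth, were spotted at 10^6 CFU/ml onto Mueller Hinton agar plates containing the compounds at a range of concentrations.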

[2] = tested on: E. coli CSH(RE45); experiment: microbe, parasite or virus in culture; type: cell-based; settings: Escherichia coli, 16 h, read-out: Minimum Inhibitory Concentration (MIC), *E. coli CSH(RE45), lactamase-producing strain; 10^6 CFU/ml
Summary of the method: as §1

[3] = tested on: A. calcoaceticus No. 4; experiment: in vitro antibacterial activity, agar plate dilution method (MIC); type: cell-based, Acinetobacter calcoaceticus; settings: Acinetobacter calcoaceticus, NO.4, 16 h, 10^6 CFU/ml
Summary of the method: as §1

[4] = tested on: Ps. aeruginosa AK 109; experiment: as above; type: cell-based, Pseudomonas aeruginosa; settings: Pseudomonas aeruginosa, AK109, 16 h, read-out: Minimum Inhibitory Concentration (MIC)
Summary of the method: as §1

[5] = tested on: Ps. aeruginosa AKR17; experiment: as above; type: cell-based, Pseudomonas aeruginosa; settings: Pseudomonas aeruginosa, AKR17, 16 h, read-out: Minimum Inhibitory Concentration (MIC), Ps. aeruginosa AKR17; 10^6 CFU/ml
Summary of the method: as §1

[6] = tested on: Ps. aeruginosa IF03445; experiment: as above; type: cell-based, Pseudomonas aeruginosa; settings: Pseudomonas aeruginosa, IF03445, 16 h, read-out: Minimum Inhibitory Concentration (MIC), Ps. aeruginosa IF03445; 10^6 CFU/ml
Summary of the method: as §1

[7] = tested on: Enterobacter cloacae GN 5797; experiment: β-lactamase inducibility; type: cell-based; settings: antibiotic at 50, 10 and 1 μg/ml; cephaloridine as substrate
Method: The assay method for induction of β-lactamase by β-latam antibiotics was as follows:
The test organism, Enterobacter cloacae GN 5797, was grown overnight in Mueller Hinton broth (Dlfco Laboratories, Detroit, Mich.) at 37° C. The culture was diluted 10-fold into 20 ml of the flesh medium and incubated with shaking at 37° C. After 2 hours of incubation, antibiotics were added to final concentrations of 50 μg/ml, 10 μg/ml and 1 μg/ml, and the incubation was continued. At 1 hour intervals after the addition of antibiotic, 3 ml of sample was taken, and immediately added with 0.1 ml of 50 mM sodium azide. The cells were harvested and washed with 50 mM phosphate buffer (ph 7.0). The cells were suspended in 5 ml of 50 mM phosphate buffer and disrupted with a sonicater in an ice-water bath. The broken cells were centrifuged at 16,500 G for 40 minutes at 4° C., and the resulting supernatant fluid was used as the crude enzyme. β-Lactamase activity was determined by a sopectrophotometric method (Antmicrob. Agents Chemother. 17, 355-358, 1980) with cephaloridine as substrate. The concentration of protein was determined by the method of Lowry (J. Biol. Chem. 193, 265-275, 1951). […] As a representative example, the compound of EXAMPLE 50 was administered to mice by means of subcutaneous administration, and the concentration in the blood was measured.

[8] = tested on: Ps. cepacia 23; experiment: in vitro antibacterial activity, agar plate dilution method (MIC); type: cell-based, Pseudomonas cepacia; settings: Burkholderia cepacia, 16 h; Ps. cepacia 23; 10^6 CFU/ml; read-out: Minimum Inhibitory Concentration (MIC)
Summary of the method: as §1

[9] = tested on: E. coli NIHJ JC2; experiment: as above; type: cell-based; settings: Escherichia coli, NIHJJC2, 16 h, read-out: Minimum Inhibitory Concentration (MIC), E. coli NIHJ JC2, 10^6 CFU/ml, 37° C.
Summary of the method: as §1

[10] = tested on: S. aureus 209P NIHJ-JC1; experiment: as above; type: cell-based; settings: Staphylococcus aureus, 16 h, read-out: Minimum Inhibitory Concentration (MIC)
Summary of the method: as §1

[11] = tested on: E. cloacae 963; experiment: as above; type: cell-based; settings: 10^6 CFU/ml
Summary of the method: as §1

[12] = tested on: E. coli GN5482; experiment: as above; type: cell-based; settings: Escherichia coli, GN5482, 16 h
Summary of the method: as §1

[13] = tested on: E. cloacae Nek 39; experiment: as above; type: cell-based; settings: Enterobacter cloacae, NEK39, 16 h, read-out: Minimum Inhibitory Concentration (MIC), *E. cloacae Nek 39, lactamase-producing strain; 10^6 CFU/ml
Summary of the method: as §1

[14] = tested on: P. vulgaris HX-19; experiment: as above; type: cell-based; settings: Proteus vulgaris, HX19, 16 h, read-out: Minimum Inhibitory Concentration (MIC)
Summary of the method: as §1

[15] = tested on: K. pneumoniae PCI-602; experiment: as above; type: cell-based; settings: Klebsiella pneumoniae, PCI602, 16 h, 10^6 CFU/ml
Summary of the method: as §1

[16] = tested on: S. marcescens IAM 1184; experiment: as above; type: cell-based; settings: Serratia marcescens, IAM1184, 16 h, read-out: Minimum Inhibitory Concentration (MIC)
Summary of the method: as §1

[17] = tested on: K. oxytoca GN10650; experiment: as above; type: cell-based; settings: Klebsiella oxytoca, GN10650, 16 h, read-out: Minimum Inhibitory Concentration (MIC), *K. oxytoca GN10650, lactamase-producing strain; 10^6 CFU/ml
Summary of the method: as §1

[18] = tested on: S. marcescens No. 16-2; experiment: as above; type: cell-based; settings: Serratia marcescens, NO.162, 16 h
Summary of the method: as §1

[19] = tested on: P. vulgaris No. 33; experiment: as above; type: cell-based; settings: Proteus vulgaris, 10^6 CFU/ml
Summary of the method: as §1

[20] = tested on: K. pneumoniae No. 42; experiment: as above; type: cell-based; settings: Klebsiella pneumoniae, NO.42, 16 h, read-out: Minimum Inhibitory Concentration (MIC), *K. pneumoniae No. 42, lactamase-producing strain; 10^6 CFU/ml
Summary of the method: as §1

[21] = tested on: M. morganii GN5407; experiment: as above; type: cell-based; settings: Morganella morganii, GN5407, 16 h, read-out: Minimum Inhibitory Concentration (MIC), *M. morganii GN5407, lactamase-producing strain; 10^6 CFU/ml
Summary of the method: as §1

[22] = concentration in blood of mice after subcutaneous administration; type: in vivo, mice (ddY type, male); settings: mouse, sc, 20 mg/kg; for concentration at 0.125 h: 7.5 min; for concentration at 0.25 h: 15 min; for concentration at 0.5 h: 30 min; for concentration at 1 h: 60 min; for concentration at 2 h: 120 min
[23] = A. calcoaceticus No. 4, read-out: Minimum Inhibitory Concentration (MIC)
[24] = Ps. aeruginosa AK 109, 10^6 CFU/ml
[25] = S. aureus 209P NIHJ-JC1, 10^6 CFU/ml, 37° C., 16 hours
[26] = Enterobacter cloacae, 963, 16 h, read-out: Minimum Inhibitory Concentration (MIC), E. cloacae 963
[27] = read-out: Minimum Inhibitory Concentration (MIC)
[28] = read-out: Minimum Inhibitory Concentration (MIC), K. pneumoniae PCI-602
[29] = S. marcescens IAM 1184, 10^6 CFU/ml
[30] = NO.33, 16 h, read-out: Minimum Inhibitory Concentration (MIC), *P. vulgaris No. 33, lactamase-producing strain
[31] = read-out: Minimum Inhibitory Concentration (MIC), A. calcoaceticus No. 4

| Compound | MIC [1] [µg/mL] | MIC [2] [µg/mL] | MIC [3, 23] [µg/mL] | MIC [4, 24] [µg/mL] | MIC [5] [µg/mL] | MIC [6] [µg/mL] | β-lactamase inducibility [7] | MIC [8] [µg/mL] | MIC [9] [µg/mL] | MIC [11, 26] [µg/mL] | MIC [12, 27] [µg/mL] | MIC [13] [µg/mL] | MIC ([14]; P. vulgaris HX-19, 10^6 CFU/ml) [µg/mL] | MIC [15, 28] [µg/mL] | MIC [16, 29] [µg/mL] | MIC [17] [µg/mL] | MIC [18, 27] [µg/mL] | MIC [19, 30] [µg/mL] | MIC [20] [µg/mL] | MIC [21] [µg/mL] | further results |
| --- | --- | --- | --- | --- | --- | --- | --- | --- | --- | --- | --- | --- | --- | --- | --- | --- | --- | --- | --- | --- | --- |
| CC(C)(O/N=C(\C(=O)N[C@@H]1C(=O)N2C(C(=O)O)=C(CSc3nnc(-c4ccc(O)c(O)c4)o3)CS[C@H]12)c1csc(N)n1)C(=O)O [Ex. 11, disodium 7β-[2-(2-aminothiazol-4-yl)-(1-carboxylate-1-methylethoxyimino)acetamido]-3-[5(3,4-dihydroxyphenyl)-1,3,4-oxadiazol-2-yl]thiomethyl-3-cephem-4-carboxylate] | < 0.006 | 1.56 | 0.05 | 0.2 | 1.56 | 0.39 | no substantial β-lactamase-inducing activity was observed | < 0.006 | 0.1 | 0.025 | 0.39 | 0.05 | < 0.006 | < 0.006 | 0.0125 | 0.0125 | 0.39 | 0.025 | 0.025 | 0.05 | MIC [10, 25]: 25 µg/mL |
| CC(C)(O/N=C(\C(=O)N[C@@H]1C(=O)N2C(C(=O)O)=C(CSc3nnc(-c4ccc(O)c(O)c4)s3)CS[C@H]12)c1csc(N)n1)C(=O)O [Ex. 34] | < 0.006 | < 0.006 | 0.05 (≈ 0.0721 µM) | 0.1 (≈ 0.144 µM) | 1.56 (≈ 2.25 µM) | 0.39 (≈ 0.562 µM) | no substantial β-lactamase-inducing activity was observed | < 0.006 | 0.1 (≈ 0.144 µM) |  |  | 0.1 (≈ 0.144 µM) | < 0.006 |  | 0.025 (≈ 0.036 µM) | 0.025 (≈ 0.036 µM) | 0.1 (≈ 0.144 µM) | 0.025 (≈ 0.036 µM) | 0.0125 (≈ 0.018 µM) | 0.05 (≈ 0.0721 µM) | MIC [10]: 12.5 µg/mL (≈ 18 µM); MIC ([11]; Enterobacter cloacae, 16 h, E. cloacae 963, read-out: Minimum Inhibitory Concentration (MIC)): 0.1 µg/mL (≈ 0.144 µM); MIC ([12]; read-out: Minimum Inhibitory Concentration (MIC), *E. coli GN5482, lactamase-producing strain, 10^6 CFU/ml): 0.78 µg/mL (≈ 1.12 µM); MIC ([15]; K. pneumoniae PCI-602, read-out: Minimum Inhibitory Concentration (MIC)): 0.0125 µg/mL (≈ 0.018 µM) |
| CC(C)(ON=C(C(=O)NC1C(=O)N2C(C(=O)O)=C(CSc3nc(C(=O)O)c(-c4ccc(O)c(O)c4)s3)CSC12)c1csc(N)n1)C(=O)O (stereo not drawn) [Ex. 50, trisodium 7β-[2-(2-aminothizaol-4-yl)-2-(1-carboxylate-1-methylethoxyimino)acetamido]-3-[4-carboxylate-5-(3,4-dihydroxyphenyl)thiazol-2-yl]-thiomethyl-3-cephem-4-carboxylate] | < 0.006 | 0.0125 |  |  | 1.56 | 0.39 |  | < 0.006 | 0.39 | 0.0125 | 0.39 | 0.025 | < 0.006 | < 0.006 | 0.025 | 0.025 |  |  | 0.05 | 0.025 | MIC [3, 31]: 0.1 µg/mL; MIC [4]: 0.39 µg/mL; concentration at 0.125 h [22]: 60500 ng/mL; concentration at 0.25 h [22]: 67000 ng/mL; concentration at 0.5 h [22]: 52300 ng/mL; concentration at 1 h [22]: 18500 ng/mL; concentration at 2 h [22]: 3100 ng/mL; concentration at 4 h ([22]; 240 min): 220 ng/mL; MIC [10, 25]: 50 µg/mL; MIC ([18]; read-out: Minimum Inhibitory Concentration (MIC), *S. marcescens No. 16-2, lactamase-producing strain, 10^6 CFU/ml): 0.78 µg/mL; MIC ([19]; 16 h, *P. vulgaris No. 33, lactamase-producing strain, read-out: Minimum Inhibitory Concentration (MIC)): < 0.006 µg/mL |
| CC(C)(O/N=C(\C(=O)N[C@@H]1C(=O)N2C(C(=O)O)=C(CSc3nc4cc(O)c(O)cc4o3)CS[C@H]12)c1csc(N)n1)C(=O)O [Example 76, disodium 7 β-[2-(2-aminothiazol-4-yl)-2-(1-carboxylate-1-methylethoxyimino)acetamido]-3-(5,6-dihydroxybenzoxazol-2-yl) thiomethyl-3-cephem-4-carboxylate] |  |  |  |  |  |  | no substantial β-lactamase-inducing activity was observed |  |  |  |  |  |  |  |  |  |  |  |  |  |  |
| CC(C)(O/N=C(\C(=O)N[C@@H]1C(=O)N2C(C(=O)[O-])=C(C[n+]3ccccc3)CS[C@H]12)c1csc(N)n1)C(=O)O [ceftazidime, reference compound] |  |  |  |  |  | 1.56 (≈ 2.85 µM) |  |  | 0.1 (≈ 0.183 µM) | 0.1 (≈ 0.183 µM) | 1.56 (≈ 2.85 µM) | 1.56 (≈ 2.85 µM) |  | 0.025 (≈ 0.0457 µM) |  | 0.1 (≈ 0.183 µM) | 1.56 (≈ 2.85 µM) | 0.05 (≈ 0.0915 µM) | 0.39 (≈ 0.714 µM) | 0.1 (≈ 0.183 µM) | MIC [3, 31]: 6.25 µg/mL (≈ 11.4 µM); MIC [4]: 0.78 µg/mL (≈ 1.43 µM); concentration at 0.125 h [22]: 25400 ng/mL; concentration at 0.25 h [22]: 24100 ng/mL; concentration at 0.5 h [22]: 17300 ng/mL; concentration at 1 h [22]: 3300 ng/mL; concentration at 2 h [22]: 200 ng/mL; MIC [10]: 6.25 µg/mL (≈ 11.4 µM); MIC [14]: 0.025 µg/mL (≈ 0.0457 µM); MIC [16]: < 0.006 µg/mL |
